Assay results reported in patent US8515150B2, “Mathematical image analysis based cell reprogramming with applications for epigenetic and non-epigenetic base induced pluripotent stem cell derivation” (The Charles Stark Draper Laboratory, Inc., priority 2009, dated 2013).

Legend:
fibroblasts = details: added to fibroblasts, alone; cited from earlier work
hESC [1] = assay: TSA toxicity in hESC; assay type: cell-based, human
hESC [2] = details: independent of feeders or recombinant growth factors; cited from earlier work
hESC [3] = assay: BMP4-induced differentiation of hESC colonies; assay type: cell-based, human; details: hESC line WA07, 100 ng/ml BMP4, 4 days; confirmed by CDX2 immunostaining
Experimental: Pluripotent hESC cultures, line WA07 (a, d, g, i) were compared to hESC that were differentiated in vitro for 4 days in culture with 100 ng/ml BMP4 (b, e, h, j). The squamous epithelial monolayer that was formed is trophectoderm, found in the outer shell of blastocysts and destined to form the placenta. Fixed colonies were stained with the DNA dye, Hoechst 33342 (a, b) and with antibodies to the pluripotency marker OCT4 (d) and the trophectoderm marker, CDX2 (e). Morphological differences that are characteristic of the spreading colonies include an increase in cell (c) and nuclear size (f). The Hoechst image of 4 colonies were analyzed for nuclear size and number of nuclei per colony area (average cell area) and differences between pluripotent and trophectoderm colony morphology were significant at p<0.05 by Students T test. Colony morphology in live cells (g, h), not fixed and immunostained as was performed in (a-f), is provided by the distribution of spatial frequencies in the image (i, j). […] Spatial frequencies are higher in pluripotent than in TE colonies and can be more completely measured using wavelet analysis, a generalized 2D, multiscalar measure of image texture. […] Empirical probability density functions (k-l) for three detail subbands of the line scans in (i) and (j) quantify the concept of spatial frequency. […]

For “FGF2: single growth factor added to media or fibroblasts”, the “effect on expression of endogenous pluripotency markers” value (fibroblasts) is given as “increased expression of endogenous pluripotency markers”.

In the case of `CC(/C=C/C(=O)NO)=C\[C@@H](C)C(=O)c1ccc(N(C)C)cc1` [TSA, trichostatin A], the “highest concentration without toxic effects” value (hESC [1]) is given as 1 nM and the effect on self-renewal (hESC [2]) is given as “activates a self-renewal program in hESC”.

B1: BMP4: growth factor bone morphogenic protein, BMP4 (protein, UniProt P12644 293-408, looked up)
Bone morphogenetic protein 4: SPKHHSQRARKKNKNCRRHSLYVDFSDVGWNDWIVAPPGYQAFYCHGDCPFPLADHLNSTNHAIVQTLVNSVNSSIPKACCVPTELSAISMLYLDEYDKVVLKNYQEMVVEGCGCR
With B1 the differentiation outcome (hESC [3]) was “form trophectoderm”.
